Here are results for 77 compounds from PubChem BioAssay AID1996.

Molecules are shown by their SMILES. ≈ marks a conversion by molar mass, not a printed value.

The conditions of this series: buffer; pH 7.4; 200.0 µM.
In turn, `CCOc1ccc(N2CC(C(=O)N3CCCC3)CC2=O)cc1` (configuration not stated) yielded a kinetic solubility of over 45.4 µg/mL. Next, `CC(=O)N/C(=N/c1nc(C)cc(C)n1)Nc1cccc(C)c1C`: 4.9 µg/mL (≈ 15.7 µM).

Turning to `O=C1Nc2ccccc2O/C1=C\c1c(F)cccc1Cl`, the solubility (kinetic) was found to be 0.7 µg/mL (≈ 2.42 µM). Next, `Cc1ncc(CN2CCC(CO)(CCOc3ccccc3)CC2)s1`: 48.2 µg/mL (≈ 139 µM); `COc1ccc(CCN2C(=S)N(c3ccccc3)C(=O)C2CC(=O)O)cc1OC` (configuration not stated): over 62.2 µg/mL. As for `Cc1cccc(C)c1N1CCN(C(=O)Cn2cncn2)CC1`, the figure is over 44.9 µg/mL; as for `O=[N+]([O-])c1cnccc1NC1CCCCC1`, 29.1 µg/mL (≈ 132 µM); as for `CCCCC(=O)Nc1ccccc1CC`, over 30.8 µg/mL. Next, `O=S(=O)(CCN1CCSCC1)c1ccc(Cl)cc1`: 41.3 µg/mL (≈ 135 µM); `Cc1ccccc1C(=O)NCCNC(=O)c1cnccn1`: 35.7 µg/mL (≈ 126 µM); `Cc1ccc(C(=O)OCC(=O)N(Cc2ccccc2)C(C)C)cc1C`: 16.8 µg/mL (≈ 49.5 µM). For the compound `O=C1Nc2ccccc2C1=Nc1cccc(Cl)c1`, the kinetic solubility worked out at 28.2 µg/mL (≈ 110 µM).

`O=C(NC1CCCC1)c1cccc(Cl)c1`: the solubility (kinetic) was 32.6 µg/mL (≈ 146 µM). Next, `Nc1cccc(CP(=O)(c2ccccc2)c2ccccc2)c1`: over 46.1 µg/mL; `CCc1ccc(CN(C)C(=O)c2cc(=O)c3ccccc3o2)cc1`: 35 µg/mL (≈ 109 µM); `COc1ccccc1CN(C)C(=O)COC(=O)c1c(C)noc1C`: over 49.9 µg/mL. Next, `O=C(NCc1ccccn1)Nc1ccccc1Cl`: over 39.3 µg/mL. Next, `COc1ccc2oc(C(=O)N3CCN(c4ncccn4)CC3)c(C)c2c1`: 4.8 µg/mL (≈ 13.6 µM). Compound `COc1ccc(NC(=O)CN2CCCCCC2)cc1OC` returned a kinetic solubility of 32.2 µg/mL (≈ 110 µM). In the case of `COc1ccc(CC(=O)OCc2csc(CC(=O)Nc3ccc(C)cc3)n2)cc1`, the solubility (kinetic) turned out to be 4.8 µg/mL (≈ 11.7 µM). Regarding `COc1ccc(S(=O)(=O)N2CCC(C)CC2)cc1OC`, the kinetic solubility is 44.8 µg/mL (≈ 150 µM). As for `O=C(COc1ccccc1Cl)NCCNC(=O)c1ccco1`, the figure is 47.3 µg/mL (≈ 147 µM); as for `COc1ccc(C(=O)O/N=C(\C)c2cnccn2)cc1`, 9 µg/mL (≈ 33.2 µM); as for `Cc1ccc(C(O)c2ccc(-n3ccnc3)cc2)cc1` (configuration not stated), 39.5 µg/mL (≈ 149 µM). For the compound `COc1cccc(NC(=O)CC2Oc3ccccc3NC2=O)c1` (configuration not stated), the solubility (kinetic) was determined as 6.7 µg/mL (≈ 21.5 µM). As for `CCOc1ccccc1C(=O)NC(C(=O)Nc1cccnc1)C(C)C` (configuration not stated), the figure is 33.7 µg/mL (≈ 98.7 µM). As for `COc1ccc(S(=O)(=O)Nc2ccncc2)c(C)c1C`, the figure is 4.6 µg/mL (≈ 15.7 µM). As for `O=C(CSc1ccncc1)Nc1ccc2ccccc2c1`, the figure is 2.3 µg/mL (≈ 7.81 µM).

The compound `O=C(COC(=O)c1ccco1)Nc1ccc(Cl)cn1` had a kinetic solubility of 24.8 µg/mL (≈ 88.4 µM). As for `CCOc1ccccc1C(=O)NCC(=O)OCC(=O)c1c(N)n(C)c(=O)n(C)c1=O`, the figure is 4.1 µg/mL (≈ 9.8 µM); as for `Cc1ccnc(NC(=O)CCC(=O)c2cccs2)c1`, over 41.2 µg/mL. As for `C=CCNC(=O)c1ccccc1CCc1ccccc1`, the figure is over 39.8 µg/mL; as for `Cc1cc(C)c2nc(NC(=O)c3ccco3)sc2c1`, 0.4 µg/mL (≈ 1.47 µM). Next, `COc1ccccc1C1CCN(Cc2cccc([N+](=O)[O-])c2)CC1`: 16.4 µg/mL (≈ 50.2 µM); `CN(C)c1cc(-c2ccc(Cl)c(Cl)c2)oc(=O)c1Cl`: 0.7 µg/mL (≈ 2.2 µM); `CCc1cccc(C)c1NC(=O)Cc1ccsc1`: 34.9 µg/mL (≈ 135 µM). `COc1ccc(OC)c(NC(=O)c2ccc3c(c2)OCO3)c1` returned a solubility (kinetic) of 4.7 µg/mL (≈ 15.6 µM). Compared with the last compound, the solubility kinetic is about 7.4-fold lower. As for `Cc1cc(C)cc(NC(=O)CN2C(=O)C3CC=CCC3C2=O)c1` (configuration not stated), the figure is over 46.9 µg/mL; as for `COC(=O)C1CCN(C(=O)COC(=O)c2ccc(N3CCCC3=O)cc2)CC1`, over 58.3 µg/mL; as for `CCN(c1cccc(C)c1)S(=O)(=O)c1ccc(OC)c([N+](=O)[O-])c1`, under 0.4 µg/mL. Next, `c1ccc(CC2CCCCN2)cc1` (configuration not stated): 7.7 µg/mL (≈ 43.9 µM); `O=C(NCCN1CCOCC1)C1CC(=O)N(c2ccc(F)cc2)C1` (configuration not stated): 48.8 µg/mL (≈ 146 µM); `O=C(O)c1ccccc1C(=O)N1CCN(S(=O)(=O)c2cccc(C(F)(F)F)c2)CC1`: over 66.4 µg/mL.

`CCOCCN(C(=O)c1ccccc1Cl)c1ccccc1`: the solubility (kinetic) is 41.1 µg/mL (≈ 135 µM). Next, `CCCN1CNC(=S)N(c2ccccc2C)C1`: over 37.4 µg/mL. Next, `Cc1ccc2c(NC(=S)NC(=O)c3ccccc3)cccc2n1`: 11.3 µg/mL (≈ 35.2 µM); `CCN(CC)S(=O)(=O)c1cccc(NC(=O)CC2CCCC2)c1`: 33 µg/mL (≈ 97.5 µM). Next, `CCOC(=O)CNC(=O)C12CC3CC(CC(C3)C1)C2`: 37.8 µg/mL (≈ 142 µM).

As for `Cl.OC(COCc1ccccc1F)CN1CCCCC1` (configuration not stated), the solubility (kinetic) was 44.1 µg/mL. As for `Cc1c(C(=O)N2CCN(C)CC2)oc2ccc(Br)cc12`, the figure is over 50.6 µg/mL; as for `CC(=O)c1ccc(S(=O)(=O)N2CCCCC2C(=O)O)cc1` (configuration not stated), 45.9 µg/mL (≈ 147 µM). Next, `CC(C)(C)NC(=O)CCCCCCCC(=O)NC(C)(C)C`: over 44.8 µg/mL; `O=C(Nc1ccncc1)Nc1cccc(Cl)c1Cl`: 24.1 µg/mL (≈ 85.4 µM); `O=C(NCCNC(=O)c1ccccc1)c1ccccc1`: over 40.2 µg/mL. Next, `CCN(CC)c1ccc(CNCCc2ccccc2F)cc1.Cl`: over 50.5 µg/mL; `COc1ccc(C(=O)CSc2nccn2C)c(OC)c1`: over 43.9 µg/mL; `O=C(Nc1ccc2ccccc2c1)c1cc(F)c(F)cc1Cl`: under 0.7 µg/mL. Consider `CCc1ccc(N2C(=O)C(Cl)=C(N3CCCCCC3)C2=O)cc1`, for which the solubility (kinetic) came out at 1.7 µg/mL (≈ 5.11 µM). As for `O=C(NCCNS(=O)(=O)c1ccccc1)c1ccc([N+](=O)[O-])cc1`, the figure is 51.1 µg/mL (≈ 146 µM); as for `C/C=C/C(=O)Nc1ccc(N2CCN(c3ccc(C(F)(F)F)cn3)CC2)nc1`, under 0.2 µg/mL; as for `NS(=O)(=O)c1ccc(CNC(=O)Cc2cccs2)cc1`, 45.1 µg/mL (≈ 145 µM).

Compound `CC(=O)c1c(C)[nH]c(C(=O)Nc2ccc(Cl)cc2F)c1C` registered a kinetic solubility of 0.7 µg/mL (≈ 2.27 µM). Next, `CN1C2=NCCN2C(=O)c2cc(Cl)ccc21`: 30.9 µg/mL (≈ 131 µM).

As for `O=C(Nc1nsc(-c2ccccc2)n1)c1ccc(F)cc1`, the kinetic solubility worked out at 32.2 µg/mL (≈ 108 µM). As for `CC(CCc1ccccc1)NC(=O)CSc1cccc[n+]1[O-]` (configuration not stated), the figure is 40.6 µg/mL (≈ 128 µM); as for `C=CCSc1ncc(CO)n1Cc1ccccc1`, 37.9 µg/mL (≈ 146 µM); as for `CN(CC(=O)Nc1cccc(F)c1)CC(=O)N1CCCCC1`, over 46.1 µg/mL. As for `CCc1ccccc1NC(=O)CSc1nc(C)c(C)o1`, the figure is over 43.6 µg/mL; as for `Cc1csc(SCC(=O)NC(=O)NCCC(C)C)n1`, 22.6 µg/mL (≈ 75 µM). Next, `CC(=O)c1cc(Cl)ccc1OCC(=O)NC1CCCC1`: over 44.4 µg/mL; `CN(C)c1ccc(-n2cccc2/C=C/[N+](=O)[O-])cc1`: under 0.2 µg/mL; `CCOc1ncccc1C(=O)N=c1sccn1C`: over 39.5 µg/mL.

`Cc1ccc(NC(=S)Nc2ccccn2)c(C)c1` registered a solubility (kinetic) of 3.1 µg/mL (≈ 12 µM). `O=C(Nc1ccsc1C(=O)N1CCCC1)c1ccccc1` returned a kinetic solubility of under 0.3 µg/mL. Next, `O=C(O)c1c(Cl)nc2ccccn12`: over 29.5 µg/mL; `COc1ccccc1C(=O)OCC(=O)Nc1ccc(Cl)cn1`: 5.1 µg/mL (≈ 15.9 µM). As for `NC(=O)c1cc(S(=O)(=O)N2CCCCC2)cs1`, the figure is over 41.2 µg/mL.
